Assay [1] has as its target T1, Orexin type 1 (OX1R) receptor (Homo sapiens, UniProt O43613).
T1 construct: expressed in transfected cells; host or cells: CHO cells (G418 selection)
T1 sequence (O43613 1-425): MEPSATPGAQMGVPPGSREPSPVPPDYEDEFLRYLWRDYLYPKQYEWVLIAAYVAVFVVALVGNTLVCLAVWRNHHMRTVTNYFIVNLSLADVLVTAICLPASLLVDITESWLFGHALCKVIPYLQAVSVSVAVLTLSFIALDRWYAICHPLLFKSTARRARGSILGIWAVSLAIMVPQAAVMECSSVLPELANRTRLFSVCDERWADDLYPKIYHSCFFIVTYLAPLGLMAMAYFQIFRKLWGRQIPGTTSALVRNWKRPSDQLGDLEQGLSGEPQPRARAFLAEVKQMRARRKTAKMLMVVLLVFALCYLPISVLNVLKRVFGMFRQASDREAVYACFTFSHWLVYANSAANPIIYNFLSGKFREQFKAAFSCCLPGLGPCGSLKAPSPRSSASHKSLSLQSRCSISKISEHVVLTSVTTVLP
As to the kind of experiment: In vitro orexin antagonism assay: intracellular calcium measurement (FLIPR), orexin-A 3 nM as agonist. The class given is cell-based. The note with it: for pIC50: first value of IC50/Kb cell; for Kb: second value of IC50/Kb cell; for inhibition at 1 µM: read-out: OX1R, % Inh. @ 1 uM. As to the method:
(§1) In Vitro Orexin Antagonism Measurement Assay: Intracellular Calcium Measurements:
(§2) Chinese hamster ovary (CHO) cells expressing the human […] and the human orexin-2 receptor, respectively, are grown in culture medium (Ham F-12 with L-Glutamine) containing 300 μg/mL G418, 100 U/mL penicillin, 100 μg/mL streptomycin and 10% heat inactivated fetal calf serum (FCS). The cells are seeded at 20,000 cells/well into 384-well black clear bottom sterile plates (Greiner). The seeded plates are incubated overnight at 37° C. in 5% 002. Human orexin-A as an agonist is prepared as 1 mM stock solution in MeOH: water (1:1), diluted in HBSS containing 0.1% bovine serum albumin (BSA), NaHCO3: 0.375 g/L and 20 mM HEPES for use in the assay at a final concentration of 3 nM.
(§3) Antagonists are prepared as 10 mM stock solution in DMSO, then diluted in 384-well plates using DMSO followed by a transfer of the dilutions into in HBSS containing 0.1% bovine serum albumin (BSA), NaHCO3: 0.375 g/L and 20 mM HEPES. On the day of the assay, 50 μL of staining buffer (HBSS containing 1% FCS, 20 mM HEPES, NaHCO3: 0.375 g/L, 5 mM probenecid (Sigma) and 3 μM of the fluorescent calcium indicator fluo-4 AM (1 mM stock solution in DMSO, containing 10% pluronic) is added to each well. The 384-well cell-plates are incubated for 50 min at 37° C. in 5% CO2 followed by equilibration at RT for 30 min before measurement.
(§4) Within the Fluorescent Imaging Plate Reader (FLIPR Tetra, Molecular Devices), antagonists are added to the plate in a volume of 10 μL/well, incubated for 120 min and finally 10 μL/well of agonist is added. Fluorescence is measured for each well at 1 second intervals, and the height of each fluorescence peak is compared to the height of the fluorescence peak induced by 3 nM orexin-A with vehicle in place of antagonist. The IC50 value (the concentration of compound needed to inhibit 50% of the agonistic response) is determined and may be normalized using the obtained IC50 value of an on-plate reference compound. Optimized conditions were achieved by adjustment of pipetting speed and cell splitting regime. The calculated IC50values may fluctuate depending on the daily cellular assay performance. Fluctuations of this kind are known to those skilled in the art.
On the technique in general: Calcium flux is commonly read through the fluorescence of an indicator in the cells.

The target in assay [2] is T2, human orexin-2 receptor (OX2R) (Homo sapiens, UniProt O43614).
T2 construct: expressed in transfected cells; host or cells: CHO cells (G418 selection)
T2 sequence (O43614 1-444): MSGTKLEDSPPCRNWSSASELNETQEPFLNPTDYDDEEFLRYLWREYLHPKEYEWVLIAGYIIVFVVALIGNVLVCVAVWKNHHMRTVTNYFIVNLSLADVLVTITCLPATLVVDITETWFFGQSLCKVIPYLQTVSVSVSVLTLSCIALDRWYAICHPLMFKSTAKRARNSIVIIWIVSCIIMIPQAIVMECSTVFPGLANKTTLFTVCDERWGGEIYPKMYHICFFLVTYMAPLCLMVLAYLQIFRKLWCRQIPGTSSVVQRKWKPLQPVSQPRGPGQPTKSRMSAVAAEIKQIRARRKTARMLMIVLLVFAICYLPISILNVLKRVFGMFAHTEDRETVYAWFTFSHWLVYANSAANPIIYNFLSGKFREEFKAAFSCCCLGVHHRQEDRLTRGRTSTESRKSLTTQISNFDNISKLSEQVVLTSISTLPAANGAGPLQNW
Described as above. In kind it is cell-based. Conditions: for inhibition at 1 µM: read-out: OX2R, % Inh. @ 1 uM; for pIC50: first value of IC50/Kb cell; for Kb: second value of IC50/Kb cell. As to the method: Antagonistic activities on both orexin receptors have been measured for each example compound using the following procedure:
as §1, §2, §3
as §4, with “art. In the case where IC50values have been determined several times for the same compound, the geometric mean has been given.” for “art.”

Molecules are shown by their SMILES. pIC50: −log10 of the molar value.

IC50, Kb and inhibition data for 29 compounds are collected here from patent US20260070922A1, “PYRAZOLE AND IMIDAZOLE DERIVATIVES AS DUAL OREXIN AND KAPPA-OPIOID RECEPTORS MODULATORS COMPOSITION, METHODS FOR TREATING NEUROLOGICAL AND PSYCHIATRIC DISORDERS” (HAGER BIOSCIENCES, LLC, priority 2022, published 2026).

In the case of `O=C(c1c(-c2ccccc2)nn2c1COCC2)N1CCC[C@H]1CNc1ccc(C(F)(F)F)cn1` [Example 2], the negative logarithm of the IC50 (pIC50) in assay [1] was 6.92.
On to `CCc1cnc(NC[C@@H]2[C@H](C)CCCN2C(=O)c2c(-c3ccccc3)nn3c2COCC3)nc1` [Example 5], for which, in assay [1], the negative-log IC50 (pIC50) is 6.85.
As to `C[C@@H]1CCCN(C(=O)c2c(-c3ccccc3)nn3ccccc23)[C@@H]1CNc1ccc(C(F)(F)F)cn1` [Example 6], the antagonist equilibrium constant (Kb) in assay [1] turned out to be 2 nM.
For `CCc1cnc(NC[C@@H]2CCCN2C(=O)c2c(-c3ccccc3)nn3ccccc23)nc1` [Example 15], in assay [1], the pIC50 is 6.74 and the Kb came out at 38 nM.
Take `O=C(c1c(-c2ccccc2)nc2ccccn12)N1CCC[C@H]1COc1ccc(C(F)(F)F)cn1` [Example 18]: the pIC50 in assay [1] is 6.54.
On to `C[C@@H]1CCCN(C(=O)c2c(-c3ccccc3)nn3ccccc23)[C@@H]1CNc1ncc(F)cn1` [Example 22], for which, in assay [1], the pIC50 was 8.00, the inhibition at 1 µM worked out at 82.2% and the Kb was determined as 2 nM. Also, the inhibition at 1 µM in assay [2] was -3%.
Turning to `O=C(c1c(-c2ccccc2)nn2ccccc12)N1CCC[C@H]1CNc1ncc(F)cn1` [Example 23], the results for the inhibition at 1 µM in assay [1] and in assay [2] were 23% and 13.5%, respectively.
For `O=C(c1c(-c2ccccc2)nn2ccccc12)N1CCCC[C@H]1CNc1ccc(C(F)(F)F)cn1` [Example 25], in assay [1], the pIC50 is 7.77, the inhibition at 1 µM came to 99.8% and the Kb amounted to 4 nM. Further, in assay [2], the pIC50 was 7.13, the inhibition at 1 µM came out at 72% and the Kb turned out to be 10 nM.
For the compound `O=C(c1c(-c2ccccc2)nc2ccccn12)N1CCCC[C@H]1CNc1ccc(C(F)(F)F)cn1` [Example 26], in assay [1], the pIC50 was 7.85, the inhibition at 1 µM stood at 99.5% and the Kb came to 3 nM. Moreover, the inhibition at 1 µM in assay [2] was 39.4%.
For `O=C(c1c(-c2ccccc2)nn2c1COCC2)N1CCCC[C@H]1CNc1ccc(C(F)(F)F)cn1` [Example 27], in that order: 8.05, 99%, 2 nM and 50.4%.
For `O=C(c1nn2ccccc2c1-c1ccccc1)N1CCC[C@H]1COc1ccc(C(F)(F)F)cn1` [Example 28], in that order: 8.40, 98.4%, 1 nM and 52.5%.
Regarding `O=C(c1nn2ccccc2c1-c1ccccc1)N1CCC[C@H]1CNc1ccc(C(F)(F)F)cn1` [Example 29], in assay [1], the pIC50 was 8.30, the inhibition at 1 µM turned out to be 99.5% and the antagonist equilibrium constant (Kb) is 1 nM. For the same compound, in assay [2], the pIC50 was 7.46, the inhibition at 1 µM was 84.1% and the Kb was found to be 5 nM.
Regarding `O=C(c1c(-c2ccccc2)nn2ccccc12)N1CCC[C@H]1CNc1ccc(F)cn1` [Example 30], the inhibition at 1 µM came out at 32.5% in assay [1] and 14.8% in assay [2].
`O=C(c1c(-c2ccccc2)nc2ncccn12)N1CCC[C@H]1CNc1ccc(F)cn1` [Example 31]: the inhibition at 1 µM in assay [1] was 4.7%; in assay [2], -3.4%.
For the compound `O=C(c1c(-c2ccccc2)nc2ncccn12)N1CCC[C@H]1CNc1ccc(C(F)(F)F)cn1` [Example 32], the figures for the inhibition at 1 µM in assay [1] and in assay [2] were 19.7% and 3.6%, respectively.
Consider `O=C(c1c(-c2ccccc2)nc2ccccn12)N1CCC[C@H]1CNc1ccc(F)cn1` [Example 33], for which the figures for the inhibition at 1 µM in assay [1] and in assay [2] were 4.8% and 0.7%, respectively.
With `O=C(c1c(-c2ccccc2)nc2ncccn12)N1CCC[C@H]1Cn1ccc(-c2ccccc2)n1` [Example 35], the results for the inhibition at 1 µM in assay [1] and in assay [2] were 54.8% and 23.7%, respectively.
Consider `O=C(c1c(-c2ccccc2)nc2cnccn12)N1CCC[C@H]1CNc1ccc(C(F)(F)F)cn1` [Example 36], for which the results for the inhibition at 1 µM in assay [1] and in assay [2] were 53.7% and 14.7%, respectively.
Turning to `O=C(c1c(-c2ccccc2)nn2ccccc12)N1CCC[C@H]1COc1ccc(Br)nc1` [Example 37], the inhibition at 1 µM in assay [1] was found to be 25.4%; in assay [2], 10.4%.
For `O=C(c1c(-c2ccccc2)nc2ccccn12)N1CCC[C@H]1COc1ccc(Br)nc1` [Example 38], in that order: 8.2% and -6.1%.
`O=C(c1c(-c2ccccc2)nc2cnccn12)N1CCC[C@H]1COc1ccc(C(F)(F)F)nc1` [Example 39]: the inhibition at 1 µM is 39.4% in assay [1] and 7.9% in assay [2].
On to `O=C(c1c(-c2ccc(F)cc2)nn2ccccc12)N1CCC[C@H]1CNc1ccc(F)cn1` [Example 41], for which the inhibition at 1 µM in assay [1] was determined as 45.6%; in assay [2] it was 3.2%.
Regarding `O=C(c1c(-c2ccc(F)cc2)nn2ccccc12)N1CCC[C@H]1CNc1ccc(C(F)(F)F)cn1` [Example 42], in assay [1], the pIC50 is 7.92, the inhibition at 1 µM was 98.2% and the Kb came out at 3 nM. The inhibition at 1 µM in assay [2] was 39.4%.
For `O=C(c1c(-c2ccc(F)cc2)nn2ccccc12)N1CCC[C@H]1COc1ccc(C(F)(F)F)cn1` [Example 43], in that order: 8.05, 93.1%, 2 nM and 28.3%.
For `O=C(c1c(-c2ccccc2)nc2ccccn12)N1CCCC[C@H]1COc1ccc(C(F)(F)F)cn1` [Example 45], in that order: 8.40, 98.7%, 0.9 nM and 38.8%.
For the compound `O=C(c1c(-c2ccccc2)nc2ncccn12)N1CCCC[C@H]1COc1ccc(C(F)(F)F)cn1` [Example 47], the values for the inhibition at 1 µM in assay [1] and in assay [2] were 59.5% and 1.2%, respectively.
Take `O=C(c1c(-c2ccccc2)nc2ncccn12)N1CCC[C@H]1COc1ccc(C(F)(F)F)cn1` [Example 48]: the inhibition at 1 µM was 18.9% in assay [1] and -1.1% in assay [2].
Consider `O=C(c1c(-c2ccccc2)nc2ccc(F)cn12)N1CCC[C@H]1COc1ccc(C(F)(F)F)cn1` [Example 51], for which, in assay [1], the pIC50 was 7.10, the inhibition at 1 µM worked out at 88.1% and the Kb is 17 nM. Further, the inhibition at 1 µM in assay [2] was 46.5%.
With `O=C(c1c(-c2ccccc2)nc2cc(F)ccn12)N1CCC[C@H]1COc1ccc(C(F)(F)F)cn1` [Example 52], in assay [1], the negative logarithm of the IC50 (pIC50) was 6.49, the inhibition at 1 µM amounted to 79.2% and the Kb is 69 nM. Also, the inhibition at 1 µM in assay [2] is 43.3%.

For orientation: pIC50 means −log10 of the IC50, conventionally taken in molar units. What is called Kb is the equilibrium dissociation constant of an antagonist, usually derived from a functional assay.
